From patent US7601850B2, “Phenyl-thiophene type vitamin D receptor modulators” (Eli Lilly and Company, priority 2002, dated 2009)
pEC50, pIC50: −log10 of the molar value. Where two headings read alike, the source gives them in different places.

Experiments:
rat osteocalcin promoter = experiment: OCN (osteocalcin) promoter assay in RG-15 (ROS 17/2.8) cells; type: cell-based
In short: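 Rat osteoblast-like RG-15 (ROS 17/2.8) cells stably carry the rat osteocalcin promoter fused to luciferase. They were treated with compounds for 48 h in medium with 2% FBS and 0.01% DMSO. EC50 was derived from luciferase activity in cell lysates.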

KERtr cells = experiment: Keratinocyte proliferation assay (BrdU incorporation); type: cell-based; settings: KERtr human skin keratinocytes, 72 hr treatment, read-out: Kera. Prolif. IC50
Description: 6. The keratinocyte proliferation assay is described in the “Assay” section of the Description, infra.
5. The Keratinocyte Proliferation Assay
This Assay is indicative for the treatment of psoriasis.
(5) The Keratinocyte Proliferation Assay:
KERtr cells (Human skin keratinocyte transformed with a retrovirus vector, obtained from ATCC) were plated in 96-well flat-bottomed plates (3000 cells/well) in 100 µl keratinocyte serum free medium supplemented with bovine pituitary extract in the absence of EGF (Life Technologies, Rockville, Md.) and incubated at 37° C. for two days. The cells were treated with various concentrations of VDR ligands (ten-fold serial dilution from 10,000 nM to 0.1 nM in triplicate), dissolved in 100 µl keratinocyte serum free medium supplemented with bovine pituitary extract in the absence of EGF and incubated at 37° C. for 72 hr. […] Potency values (IC50) values were determined as the concentration (nM) of compound that elicited a half-maximal response.

[1] = Mouse hypercalcemia assay (six day, serum ionized calcium); type: in vivo
Description: 5. The Mouse Hypercalcemia test is described in the “Assay” section of the Description, infra.
4. The Mouse Hypercalcemia Assay
The Mouse Hypercalcemia Assay is a six day hypercalcemia test for toxicity and selectivity. Acceptable test results are levels greater than 300 μg/kg/day. Preferred assay results are levels greater than 1000 μg/kg/day.
(4) Materials and Method for The Mouse Hypercalcemia Assay:
Weanling, virus-antibody-free, five to six weeks old female DBF mice (Harlan, Indianapolis, Ind.) are used for all the studies. Animals are allowed to acclimate to local vivarium conditions for 2 days. […] The animals then are divided into groups with 4-5 mice per group. Different doses of test compounds prepared in 10% Ethanol and 90% sesame oil are administered to mice orally via gavage for 6 days. 1α-25(OH)2D3 0.5 μg/kg/d was also given to one group of mice as the positive control. Serum ionized calcium is evaluated at 6 hours after the last dosing under isoflurane anesthesia by Ciba-Corning Ca++/PH Analyzer, (Model 634, Chiron Diagnostics Corp., East Walpole, Mass.). Raw data of group differences is assessed by analysis of variance (ANOVA) using Fisher's protected least significant difference (PLSD) where the significance level was P<0.05.

[2] = Homo sapiens, Keratinocyte, 72 h

SMILES | pEC50 (rat osteocalcin promoter) | pIC50 (KERtr cells; [2]) | Mouse Hypercal [1] | pEC50 (rat osteocalcin promoter; Rattus norvegicus) | pIC50 (KERtr cells) | Mouse Hypercal μg/Kg/d [1]
CCC(CC)(c1ccc(OCC(=O)O)c(C)c1)c1cc(C)c(CCC(O)C(C)(C)C)s1 (single isomer, unassigned) [Ex. 33B, 3′-[5-(3-hydroxy-4,4-dimethylpentyl)-4-methylthiophen-2-yl]-3′-[4-(carboxylmethoxy)-3-methylphenyl]pentane] | 8.12 | 7.65 | 1000 µg/kg/day |  |  | 
CCC(CC)(c1ccc(OCC(=O)Nc2nnn[nH]2)c(C)c1)c1cc(C)c(CCC(O)C(C)(C)C)s1 (single isomer, unassigned) [Ex. 35, 3′-[5-(3-hydroxy-4,4-dimethylpentyl)-4-methylthiophen-2-yl]-3′-[4-(tetrazol-5-yl-aminocarbonylmethoxy)-3-methylphenyl]pentane] | 7.68 | 6.32 | 3000 µg/kg/day |  |  | 
CCC(CC)(c1ccc(OCC(O)C(C)(C)C)c(C)c1)c1cc(C)c(C(=O)N(C)OC)s1 (single isomer, unassigned) [Ex. 43, 5-{1-Ethyl-1-[4-(2-hydroxy-3,3-dimethyl-butyoxy)-3-methyl-phenyl]-propyl}-3methyl-thiophene-2-carboxylic acid methoxy-methyl-amide] |  |  | 1000 µg/kg/day | 7.71 |  | 
CCC(CC)(c1ccc(OCC(O)C(C)(C)C)c(C)c1)c1cc(C)c(C(=O)N(C)OC)s1 (single isomer, unassigned) [Ex. 44, 5-{1-Ethyl-1-[4-(2-hydroxy-3,3-dimethyl-butyoxy)-3-methyl-phenyl]-propyl}-3methyl-thiophene-2-carboxylic acid methoxy-methyl-amide] | 7.52 |  | 1000 µg/kg/day |  |  | 
CCC(CC)(c1ccc(OCC(O)C(C)(C)C)c(C)c1)c1cc(C)c(C(=O)NC(C)(C)C(=O)O)s1 (single isomer, unassigned) [Ex. 71, 2-[(5-{1-Ethyl-1-[4-(2-hydroxy-3,3-dimethyl-butoxy)-3-methyl-phenyl]-propyl}-3-methyl-thiophene-2-carbonyl)-amino]-2-methyl-propionic acid] |  |  | <300 µg/kg/day | 8.46 | 7.54 | 
CCC(CC)(c1ccc(OCC(O)C(C)(C)C)c(C)c1)c1cc(C)c(C(=O)NC(C)(C)C(=O)O)s1 (single isomer, unassigned) [Ex. 77, 2-[(5-{1-Ethyl-1-[4-(2-hydroxy-3,3-dimethyl-butoxy)-3-methyl-phenyl]-propyl}-3-methyl-thiophene-2-carbonyl)-amino]-2-methyl-propionic acid] | 8.70 |  | 300 µg/kg/day |  | 6.71 | 
CCCc1cc(C(CC)(CC)c2ccc(C(=O)O)s2)ccc1OCC(O)C(C)(C)C (single isomer, unassigned) [Ex. 94, 3′-[4-(2-hydroxy-3,3-dimethylbutoxy)-3-n-propylphenyl]-3′-[5-carboxy-thiophen-2-yl]pentane] | 8.39 |  | 1000 µg/kg/day |  |  | 
CCC(CC)(c1ccc(OCC(O)C(C)(C)C)c(C(C)C)c1)c1ccc(C(=O)O)s1 (single isomer, unassigned) [Ex. 97, 3′-[4-(2-hydroxy-3,3-dimethylbutoxy)-3-i-propylphenyl]-3′-[5-carboxy-thiophen-2-yl]pentane] |  |  | 3000 µg/kg/day | 7.65 |  | 
CCC(CC)(c1ccc(OCC(O)C(C)(C)C)c(C(C)C)c1)c1ccc(C(=O)O)s1 (single isomer, unassigned) [Ex. 98, 3′-[4-(2-hydroxy-3,3-dimethylbutoxy)-3-i-propylphenyl]-3′-[5-carboxy-thiophen-2-yl]pentane] | 7.80 |  | 4000 µg/kg/day |  |  | 
CCc1cc(C(CC)(CC)c2ccc(C(=O)O)s2)ccc1OCC(O)C(C)(C)C (single isomer, unassigned) [Ex. 100, 3′-[4-(2-hydroxy-3,3-dimethylbutoxy)-3-ethylphenyl]-3′-[5-carboxy-thiophen-2-yl]pentane] | 8.25 | 6.67 | 3000 µg/kg/day |  |  | 
CCC(CC)(c1ccc(OCC(C)(O)C(C)(C)C)c(C)c1)c1ccc(C(=O)O)s1 (single isomer, unassigned) [Ex. 104, 3′-[4-(2-hydroxy-2,3,3-trimethylbutoxy)-3-methylphenyl]-3′-[5-carboxy-thiophen-2-yl]pentane] | 7.04 |  | 1000 µg/kg/day |  |  | 
CCC(CC)(c1ccc(OCC(C)(O)C(C)(C)C)c(C)c1)c1ccc(C(=O)NCC(=O)O)s1 (single isomer, unassigned) [Ex. 106, 3′-[4-(2-hydroxy-2,3,3-trimethylbutoxy)-3-methylphenyl]-3′-[5-(carboxymethylamino)carbonyl-thiophen-2-yl]pentane] |  | 7.89 |  | 8.09 |  | >=1000 μg/Kg/d
CCCc1cc(C(CC)(CC)c2ccc(C(=O)N[C@@H](C)C(=O)O)s2)ccc1OCC(C)(O)C(C)(C)C (single isomer, unassigned) [Ex. 114, d-3′-[4-(2-hydroxy-2,3,3-trimethylbutoxy)-3-n-propylphenyl]-3′-[5-(carboxy-1-ethylamino)carbonyl-thiophen-2-yl]pentane] |  |  | <300 µg/kg/day | 9.55 |  | 
CCC(CC)(c1ccc(OCC(C)(O)C(C)(C)C)c(OC)c1)c1ccc(C(=O)NC(C)C(=O)O)s1 (single isomer, unassigned) [Ex. 116, d-3′-[4-(2-hydroxy-2,3,3-trimethylbutoxy)-3-methoxyphenyl]-3′-[5-(carboxy-1-ethylamino)carbonyl-thiophen-2-yl]pentane] |  |  | >3000 µg/kg/day | 7.77 |  | 
CCC(CC)(c1ccc(OCC(=O)C(C)(C)C)c(C)c1)c1ccc(OCC(=O)C(C)(C)C)c(C)c1 [DD, reference compound] |  | 5.97 | 1000 µg/kg/day | 7.51 |  | 
CCC(CC)(c1ccc(OCC(=O)C(C)(C)C)c(C)c1)c1cc(C)c(C(=O)N(C)OC)s1 [Ex. 45, 5-{1-[4-(3,3-dimethyl-2-oxo-butyoxy)-3-methyl-phenyl]-1-ethyl-propyl}-3methyl-thiophene-2-carboxylic acid methoxy-methyl-amide] |  |  | >1500 µg/kg/day | 7.39 |  | 
CCC(CC)(c1ccc(OCC(=O)C(C)(C)C)c(C)c1)c1cc(C)c(C(=O)NCC(=O)O)s1 [Ex. 50] |  |  | >3000 µg/kg/day | 7.66 |  | 
CCC(CC)(c1ccc(OCC(O)C(C)(C)C)c(C)c1)c1cc(C)c(C(=O)N[C@@H](C)C(=O)O)s1 (stereo partly drawn) [Ex. 55, L-2-[(5-{1-Ethyl-1-[4-(2-hydroxy-3,3-dimethyl-butoxy)-3-methyl-phenyl]-propyl}-3-methyl-thiophene-2-carbonyl)-amino]-propionic acid] | 7.53 |  | 1000 µg/kg/day |  | 10.00 | 
CCC(CC)(c1ccc(OCC(O)C(C)(C)C)c(C)c1)c1cc(C)c(C(=O)N[C@H](C)C(=O)O)s1 (stereo partly drawn) [Ex. 67, D-2-[(5-{1-Ethyl-1-[4-(2-hydroxy-3,3-dimethyl-butoxy)-3-methyl-phenyl]-propyl}-3-methyl-thiophene-2-carbonyl)-amino]-propionic acid] | 7.71 | 6.71 | 3000 µg/kg/day |  |  | 
CCC(CC)(c1ccc(OCC(O)C(C)(C)C)c(C(C)C)c1)c1ccc(C(=O)O)s1 (centres unmarked) [Ex. 92, 3′-[4-(2-Hydroxy-3,3-dimethylbutoxy)-3-(1-methylethyl)phenyl]-3′-[5-carboxy-thiophen-2-yl]pentane] |  |  | 1000 µg/kg/day | 7.12 |  | 
CCCc1cc(C(CC)(CC)c2ccc(C(=O)O)s2)ccc1OCC(O)C(C)(C)C (centres unmarked) [Ex. 93, 3′-[4-(2-hydroxy-3,3-dimethylbutoxy)-3-n-propylphenyl]-3′-[5-carboxy-thiophen-2-yl]pentane] |  | 6.75 | 3000 µg/kg/day | 7.41 |  | 
CCc1cc(C(CC)(CC)c2ccc(C(=O)O)s2)ccc1OCC(O)C(C)(C)C (centres unmarked) [Ex. 99, 3′-[4-(2-hydroxy-3,3-dimethylbutoxy)-3-ethylphenyl]-3′-[5-carboxy-thiophen-2-yl]pentane] |  |  | >1000 µg/kg/day | 7.42 |  | 
CCC(CC)(c1ccc(OCC(C)(O)C(C)(C)C)c(C)c1)c1ccc(C(=O)O)s1 (centres unmarked) [Ex. 103, 3′-[4-(2-hydroxy-2,3,3-trimethylbutoxy)-3-methylphenyl]-3′-[5-carboxy-thiophen-2-yl]pentane] |  |  | 3000 µg/kg/day | 6.99 |  | 
